{
  "source": "patent US4525458A",
  "about": "“Method for the production of sphingomyelinase” (priority 1981, dated 1985)",
  "key": {"sphingomyelinase [1]": {"system": "sphingomyelinase", "assay": "Substrate specificity", "assay_type": "biochemical, Streptomyces sp. A 9107", "conditions": "as substrate; sphingomyelin = 100", "protocol": "(§1) After preincubating 0.45 ml of the following reaction mixture at 37° C., 50 μl of an enzyme solution is added to start the reaction. After just 10 minutes, 0.1 ml of 0.1M EDTA is added to stop the reaction.\n(§2) The formed phosphorylcholine is led to a color development system through a H2 O2 by using the following reaction mixture, and absorbance at 500 nm is measured.\n(§3) The indication of enzymatic activity is calculated from the following equation with activity to produce 1 μmole of phosphorylcholine for 1 minute as one unit:\n(§4) wherein ΔA500 nm means a difference in absorbance at 500 nm between at the start of reaction and 10 minutes after the reaction.\n(10) SUBSTRATE SPECIFICITY"}, "sphingomyelinase [2]": {"system": "sphingomyelinase", "assay": "Effect of metal ions on enzymatic activity", "assay_type": "biochemical, Streptomyces sp. A 9107", "conditions": "no addition = 100", "protocol": "as §1, §2, §3, §4"}, "sphingomyelinase [3]": {"system": "sphingomyelinase", "assay": "Effect of surfactant on enzymatic activity", "assay_type": "biochemical, Streptomyces sp. A 9107", "conditions": "additive 0.1%; no addition = 100", "protocol": "as §1, §2, §3, §4"}, "[4]": {"assay": "Thermal stability (residual activity)", "assay_type": "physicochemical", "conditions": "23 u/ml in 100 mM Tris-HCl buffer (pH 7.0), heated for 10 minutes", "protocol": "An enzyme solution is prepared so that its concentration in 100 mM Tris-HCl buffer (pH 7.0) is 23 u/ml, and measured for the residual activity after heated for 10 minutes at every temperatures shown on the abscissa in FIG. 3. The liquor is kept stable until the treatment at 40° C. for 10 minutes."}, "[5]": {"assay": "Isoelectric point by electrophoretic method using ampholite", "assay_type": "physicochemical", "protocol": "It is determined by the electrophoretic method using ampholite, a carrier. The pH obtained is 8.6."}, "[6]": {"assay": "Measurement of enzymatic activity (specific activity of preparations)", "assay_type": "biochemical", "conditions": "1 unit = 1 μmole phosphorylcholine per minute", "protocol": "as §1, §2, §3, §4"}},
  "data": [
    {"molecule": "Lysolecithin", "values": [
      {"measurement": "Relative activity (%)", "setting": "sphingomyelinase [1]", "value": 0, "unit": "%"}
    ]},
    {"molecule": "[Cl-].[Na+]", "note": "[NaCl]", "values": [
      {"measurement": "Relative activity (%)", "setting": "sphingomyelinase [2]; additive 100 mM", "value": 73, "unit": "%"}
    ]},
    {"molecule": "[Cl-].[Cl-].[Co+2]", "note": "[CoCl2]", "values": [
      {"measurement": "Relative activity (%)", "setting": "sphingomyelinase [2]; additive 1 mM", "value": 35, "unit": "%"}
    ]},
    {"molecule": "[Ca+2].[Cl-].[Cl-]", "note": "[CaCl2]", "values": [
      {"measurement": "Relative activity (%)", "setting": "sphingomyelinase [2]; additive 1 mM", "value": 48, "unit": "%"}
    ]},
    {"molecule": "[Ba+2].[Cl-].[Cl-]", "note": "[BaCl2]", "values": [
      {"measurement": "Relative activity (%)", "setting": "sphingomyelinase [2]; additive 1 mM", "value": 89, "unit": "%"}
    ]},
    {"molecule": "C[C@H](CCC(=O)O)[C@H]1CC[C@H]2[C@@H]3CC[C@@H]4C[C@H](O)CC[C@]4(C)[C@H]3C[C@H](O)[C@]12C", "note": "[Sodium deoxycholate]", "values": [
      {"measurement": "Relative activity (%)", "setting": "sphingomyelinase [3]", "value": 16, "unit": "%"}
    ]},
    {"molecule": "sphingomyelinase [enzyme]", "values": [
      {"measurement": "Temperature until which kept stable", "setting": "[4]", "value": "≤ 40", "unit": "°C"},
      {"measurement": "Isoelectric point", "setting": "[5]", "value": 8.6, "unit": "pH"},
      {"measurement": "Specific activity", "setting": "[6]", "value": "1,050 U/mg"}
    ]},
    {"molecule": "[Cl-].[Cl-].[Zn+2]", "note": "[ZnCl2]", "values": [
      {"measurement": "Relative activity (%)", "setting": "sphingomyelinase [2]; additive 1 mM", "value": 3, "unit": "%"}
    ]},
    {"molecule": "Phosphatidyl serine", "values": [
      {"measurement": "Relative activity (%)", "setting": "sphingomyelinase [1]", "value": 0, "unit": "%"}
    ]},
    {"molecule": "[Cl-].[Cl-].[Mg+2]", "note": "[MgCl2]", "values": [
      {"measurement": "Relative activity (%)", "setting": "sphingomyelinase [2]; additive 1 mM", "value": 232, "unit": "%"}
    ]},
    {"molecule": "[Cl][Cu][Cl]", "note": "[CuCl2]", "values": [
      {"measurement": "Relative activity (%)", "setting": "sphingomyelinase [2]; additive 1 mM", "value": 19, "unit": "%"}
    ]},
    {"molecule": "Phosphatidyl inositol", "values": [
      {"measurement": "Relative activity (%)", "setting": "sphingomyelinase [1]", "value": 0, "unit": "%"}
    ]},
    {"molecule": "Triton X-100", "values": [
      {"measurement": "Relative activity (%)", "setting": "sphingomyelinase [3]", "value": 358, "unit": "%"}
    ]},
    {"molecule": "[Cl][Mn][Cl]", "note": "[MnCl2]", "values": [
      {"measurement": "Relative activity (%)", "setting": "sphingomyelinase [2]; additive 1 mM", "value": 236, "unit": "%"}
    ]},
    {"molecule": "Lecithin", "values": [
      {"measurement": "Relative activity (%)", "setting": "sphingomyelinase [1]", "value": 0, "unit": "%"}
    ]},
    {"molecule": "CCCCCCCCCCCCOS(=O)(=O)[O-].[Na+]", "note": "[Sodium laurylsulfate]", "values": [
      {"measurement": "Relative activity (%)", "setting": "sphingomyelinase [3]", "value": 13, "unit": "%"}
    ]},
    {"molecule": "[Cl][Ni][Cl]", "note": "[NiCl2]", "values": [
      {"measurement": "Relative activity (%)", "setting": "sphingomyelinase [2]; additive 1 mM", "value": 12, "unit": "%"}
    ]},
    {"molecule": "Sphingomyelin", "values": [
      {"measurement": "Relative activity (%)", "setting": "sphingomyelinase [1]", "value": 100, "unit": "%"}
    ]},
    {"molecule": "Phosphatidyl ethanolamine", "values": [
      {"measurement": "Relative activity (%)", "setting": "sphingomyelinase [1]", "value": 0, "unit": "%"}
    ]},
    {"molecule": "[Cl-].[K+]", "note": "[KCl]", "values": [
      {"measurement": "Relative activity (%)", "setting": "sphingomyelinase [2]; additive 100 mM", "value": 90, "unit": "%"}
    ]},
    {"molecule": "Sodium laurylbenzenesulfonate", "values": [
      {"measurement": "Relative activity (%)", "setting": "sphingomyelinase [3]", "value": 8, "unit": "%"}
    ]},
    {"molecule": "Cl.N", "note": "[NH4 Cl]", "values": [
      {"measurement": "Relative activity (%)", "setting": "sphingomyelinase [2]; additive 100 mM", "value": 79, "unit": "%"}
    ]}
  ]
}
